Experimental data from PubChem BioAssay (NCI).
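Values below derive from 48-hour exposures of cells grown in 96-well plates, with endpoints linearly interpolated between the two concentrations bracketing the appropriate inhibition level. Definition used: TGI = concentration required for complete inhibition of growth.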

Key:
Experiment in all cases: NCI-60 cell line screen, 48 h
A498 renal = system: A498 renal
A549 NSCLC = system: A549 NSCLC
BT-549 breast = system: BT-549 breast
HCC-2998 colon = system: HCC-2998 colon
HOP-62 NSCLC = system: HOP-62 NSCLC
HOP-92 NSCLC = system: HOP-92 NSCLC
HS 578T breast = system: HS 578T breast
K-562 leukemia = system: K-562 leukemia
M14 melanoma = system: M14 melanoma
MALME-3M melanoma = system: MALME-3M melanoma
MDA-MB-231 breast = system: MDA-MB-231 breast
NCI-H23 lung = system: NCI-H23 lung
OVCAR-5 ovarian = system: OVCAR-5 ovarian
PC-3 prostate = system: PC-3 prostate
RPMI-8226 leukemia = system: RPMI-8226 leukemia
SN12C renal = system: SN12C renal
SNB-19 CNS = system: SNB-19 CNS
SW-620 colon = system: SW-620 colon
TK-10 renal = system: TK-10 renal

| Structure (SMILES) | TGI (A498 renal) | TGI (A549 NSCLC) | TGI (BT-549 breast) | TGI (HCC-2998 colon) | TGI (HOP-62 NSCLC) | TGI (HOP-92 NSCLC) | TGI (HS 578T breast) | TGI (K-562 leukemia) | TGI (M14 melanoma) | TGI (MALME-3M melanoma) | TGI (MDA-MB-231 breast) | TGI (NCI-H23 lung) | TGI (OVCAR-5 ovarian) | TGI (PC-3 prostate) | TGI (RPMI-8226 leukemia) | TGI (SN12C renal) | TGI (SNB-19 CNS) | TGI (SW-620 colon) | TGI (TK-10 renal) |
| --- | --- | --- | --- | --- | --- | --- | --- | --- | --- | --- | --- | --- | --- | --- | --- | --- | --- | --- | --- |
| CCOC(=O)c1[nH]c2ccccc2c1C(=O)C[C@H](NC(=O)C(F)(F)F)C(=O)OC | > 100 µM | > 100 µM | > 100 µM | > 100 µM | > 100 µM | > 100 µM | > 100 µM | > 100 µM | > 100 µM | > 100 µM | > 100 µM | > 100 µM | > 100 µM | > 100 µM | > 100 µM | > 100 µM | > 100 µM | > 100 µM | > 100 µM |
| COc1cc2c(c3c1c(=O)c1ccccc1n3C)C=CC1(CCCCC1)O2 | > 9.61 µM | 4.43 µM | > 8.59 µM | > 10 µM | > 9.54 µM | 9.77 µM | 7.49 µM | 6.36 µM | 7.92 µM | > 10 µM | > 10 µM | > 10 µM | > 10 µM | > 10 µM | > 5.04 µM | > 10 µM | > 10 µM | > 10 µM | > 10 µM |
| CC1CCC2C(C(=O)O[C@H]3C4CCO[C@@H](OC5OC(CO)C(O)C(O)C5O)C4[C@@]4(CO)O[C@@H]34)=CO[C@@H](OC3OC(CO)C(O)C(O)C3O)C12 (some centres not stated) | > 10 µM | > 10 µM | > 10 µM | > 10 µM | > 10 µM | > 10 µM | > 10 µM | > 10 µM | > 10 µM | > 10 µM | > 10 µM | > 10 µM | > 10 µM | > 10 µM | > 10 µM | > 10 µM | > 10 µM | > 10 µM | > 10 µM |
| CCCCn1c2c(n(CCCC)c1=S)-c1c(n(CCCC)c(=S)n1CCCC)SSSS2 | > 100 µM | > 95.1 µM | 28.1 µM | 26.7 µM | 36.6 µM | 6.04 µM | 46.3 µM | – | 17.5 µM | 2.03 µM | 2.28 µM | 14.3 µM | 1.66 µM | 7.24 µM | 10.2 µM | 14.7 µM | > 100 µM | 3.8 µM | 22.9 µM |
| S=C(S)N1CCN(c2ccc(Cl)c(Cl)c2)CC1 | 44.2 µM | > 100 µM | > 100 µM | 36.6 µM | > 100 µM | 75.3 µM | 97.2 µM | 55.8 µM | 40.7 µM | 44.2 µM | 40.7 µM | – | > 100 µM | 46.9 µM | 45.8 µM | > 100 µM | > 100 µM | 52.9 µM | > 100 µM |
| COc1cc([N+](=O)[O-])ccc1NC1=CC(=O)CCC1 | > 100 µM | > 100 µM | > 100 µM | > 100 µM | > 100 µM | > 100 µM | > 100 µM | > 100 µM | > 100 µM | > 100 µM | > 100 µM | > 100 µM | > 100 µM | > 100 µM | > 100 µM | > 100 µM | > 100 µM | > 100 µM | > 100 µM |
